The results in this text go back to PMC6095626, “Screening of the Pathogen Box for inhibitors with dual efficacy against Giardia lamblia and Cryptosporidium parvum” (PLoS Neglected Tropical Diseases, 2018).

The subject of experiment [1] is G. lamblia trophozoites (luciferase expressing, WBC6). Kind of experiment: microbe, parasite or virus in culture. Particulars: for Giardia (16 uM) Mean % inhibition: initial Pathogen Box screen, single concentration 16 µM, inhibition compared to DMSO wells; for G. lamblia inhibition of parasite growth in the initial screen: 16 μM, 24 hours; for inhibition at 16 µM: Giardia duodenalis, read-out: Giardia (16 uM) Mean % inhibition. Format: cell-based, Giardia lamblia. As for the experimental part: Trophozoites were harvested by chilling cultures on ice for 30 minutes and plated by adding 150 μL per well at a concentration of 250,000 cells/mL. Metronidazole (Sigma, St. Louis, MO) was used as a control and was serially diluted 1:2 from 40 μM to 0.04 μM and 150 μL was added to the 150 μL of the G. lamblia trophozoites. Plates were covered in plastic low-evaporation lids, sealed in individual anaerobic BD GasPak Bio-Bags (Becton Dickinson, San Jose, CA) and incubated at 37 °C for 24 hours. […] A duplicate plate was concurrently set up and assayed using a MOXI Z Mini Automated Cell Counter Kit (Orflo, Ketchum, ID). Results obtained from the bioluminescence assay and the MOXI counter data were compared to evaluate their correlation to each another. Albendazole (Sigma, St. Louis, MO), an alternative giardiasis therapeutic, was assayed in concentrations from 4 μM to 0.004 μM with only the luciferase expressing G. lamblia cells. […]

In experiment [2] the test system is C. parvum (UGA1 Nluc expressing strain in HCT-8 cells). Kind of experiment: microbe, parasite or virus in culture. Format: cell-based, Cryptosporidium parvum. Particulars: for Crypto (10 uM) Mean % inhibition: initial Pathogen Box screen, single concentration 10 µM, inhibition compared to DMSO wells; for inhibition at 10 µM: Cryptosporidium parvum, HCT-8, read-out: Crypto (10 uM) Mean % inhibition. As for the experimental part:
Growth inhibition and EC50 determination assays were performed using UGA1 Nluc expressing C. parvum strain in HCT-8 cells (ATCC^©, Manassas, VA) as previously described. HCT-8 cells were inoculated onto 96-well plates and allowed to grow for 48 hours to 90–100% confluence and then treated with single concentration (10 μM) or serially diluted compounds prior to oocyst infection. C. parvum oocysts were incubated for 10 minutes in 10% bleach at room temperature and then washed with DPBS. […] The cell monolayers were lysed for 1 hour before adding Nano-Glo® luciferase reagent (Promega, Madison, WI), and measuring relative luminescence units (RLU) in an EnVision Plate Reader (Perkin Elmer, Waltham, MA). Several parameters, including reproducibility and reliability, were previously evaluated to optimize this assay for low and high-throughput (HTP) screening of small molecule compounds against C. parvum. EC50 values were calculated using Prism 7 software (GraphPad Software, San Diego, CA).
C. parvum screening against the Pathogen Box compounds was performed as previously described starting at a concentration of 10 μM [23].

For `O[C@@H](c1cc(C(F)(F)F)nc2c(C(F)(F)F)cccc12)[C@H]1CCCCN1` [MMV000016], the “Giardia (16 uM) Mean % inhibition” value in experiment [1] was 16%. In addition, the “Crypto (10 uM) Mean % inhibition” value in experiment [2] was determined as 77%.
Turning to `COc1cc(N[C@@H](C)CCCN)c2ncccc2c1` [MMV000023], the “Giardia (16 uM) Mean % inhibition” value in experiment [1] is 47%. For the same molecule, in experiment [2], the “Crypto (10 uM) Mean % inhibition” value is reported as 14%.
One may read the inhibition as the percentage by which the read-out fell short of the control. As to `N=C(N)c1ccc(OCCCCCOc2ccc(C(=N)N)cc2)cc1` [MMV000062, pentamidine, reference compound], in experiment [1], the “G. lamblia inhibition of parasite growth in the initial screen” value is reported as “did not show up in the screen” and the inhibition at 16 µM was 9%. In addition, the inhibition at 10 µM in experiment [2] stood at 50%.
Turning to `CCN(CC)CCCCCCNc1cc(OC)cc2c(C)ccnc12` [MMV000063], the “Giardia (16 uM) Mean % inhibition” value in experiment [1] turned out to be 26%. Moreover, the “Crypto (10 uM) Mean % inhibition” value in experiment [2] was 62%.
As for `O=S(=O)(c1ccc(Cl)cc1)N1CCN(C(=S)NCc2ccco2)CC1` [MMV000858], the “Giardia (16 uM) Mean % inhibition” value in experiment [1] amounted to 3%. Besides, in experiment [2], the “Crypto (10 uM) Mean % inhibition” value is reported as 41%.
The like results for `COc1cccc2c(C)nc(N=C(N)N)nc12` [MMV000907] were, in that order, 68% and 67%.
The like results for `CCCS(=O)(=O)N1CCC(CO)(Cc2ccccc2C(F)(F)F)CC1` [MMV001059] were, in that order, 10% and “X* (Mean or standard deviation are negative but not significantly different from the control to be a growth promoter)”.
On the same counts, the results for `COC(=O)C1=C(C)NC(C)=C(C(=O)OC(C)C)[C@H]1c1cccc2nonc12` [MMV001493] are 25% and 53%.
With `CNCC[C@H](Oc1ccc(C(F)(F)F)cc1)c1ccccc1` [MMV001561], the “Giardia (16 uM) Mean % inhibition” value in experiment [1] came out at 15%. Also, the “Crypto (10 uM) Mean % inhibition” value in experiment [2] was “X* (Mean or standard deviation are negative but not significantly different from the control to be a growth promoter)”.
On to `NCCC[C@@](N)(C(=O)O)C(F)F` [MMV001625], for which the “Giardia (16 uM) Mean % inhibition” value in experiment [1] was 16%. The “Crypto (10 uM) Mean % inhibition” value in experiment [2] worked out at 36%.
The like results for `O=C(C1CCCCC1)N1CC(=O)N2CCc3ccccc3[C@@H]2C1` [MMV002529] were, in that order, 16% and 55%.
With `CCN(CC)C(=O)N1CCN(C)CC1` [MMV002816], in experiment [1], the “Giardia (16 uM) Mean % inhibition” value is listed as 29%. Moreover, the “Crypto (10 uM) Mean % inhibition” value in experiment [2] is on record as “X* (Mean or standard deviation are negative but not significantly different from the control to be a growth promoter)”.
As to `COC(=O)Nc1nc2ccc(C(=O)c3ccccc3)cc2[nH]1` [MMV003152, mebendazole, reference compound], in experiment [1], the “G. lamblia inhibition of parasite growth in the initial screen” value is “did not show up in the screen” and the inhibition at 16 µM came to 26%. Also, the inhibition at 10 µM in experiment [2] stood at 91%.
For `CN1CCCN(C(c2ccccc2)c2ccc(Cl)cc2)CC1` (centres unmarked) [MMV004168], the “Giardia (16 uM) Mean % inhibition” value in experiment [1] came to 27%. Also, the “Crypto (10 uM) Mean % inhibition” value in experiment [2] is on record as 56%.
For `O=C1Nc2ccc(Br)cc2C12NCCc1c2[nH]c2ccccc12` (centres unmarked) [MMV006239], in experiment [1], the “Giardia (16 uM) Mean % inhibition” value is recorded as “X* (Mean or standard deviation are negative but not significantly different from the control to be a growth promoter)”. In experiment [2], the “Crypto (10 uM) Mean % inhibition” value is 53%.
With `Cc1ccc2[nH]c3c(NCCN(C)C)ncnc3c2c1` [MMV006372], the “Giardia (16 uM) Mean % inhibition” value in experiment [1] came to 21%. In addition, in experiment [2], the “Crypto (10 uM) Mean % inhibition” value was determined as 64%.
Take `COc1cc2ncnc(NC3CCN(Cc4ccccc4)CC3)c2cc1OC` [MMV006741]: the “Giardia (16 uM) Mean % inhibition” value in experiment [1] was 35%. For the same molecule, the “Crypto (10 uM) Mean % inhibition” value in experiment [2] is reported as 45%.
On the same counts, the results for `Cc1cc(Cl)c(S(=O)(=O)N2CCCC2)cc1OCC(=O)NC1CCCCC1` [MMV006833] are 17% and 70%.
On the same counts, the results for `CN(C)c1cc(NC(=O)Nc2ccccc2)c2ccccc2n1` [MMV006901] are 49% and “X* (Mean or standard deviation are negative but not significantly different from the control to be a growth promoter)”.
For the molecule `Cc1cc(NC(=O)c2ccc(S(=O)(=O)N(Cc3ccccc3)C(C)C)cc2)no1` [MMV007133], the “Giardia (16 uM) Mean % inhibition” value in experiment [1] was 11%. Also, the “Crypto (10 uM) Mean % inhibition” value in experiment [2] is listed as “X* (Mean or standard deviation are negative but not significantly different from the control to be a growth promoter)”.
Take `COc1cc(OC)cc(C(=O)NCC2Cc3cc(Cl)cc(-c4ccncc4)c3O2)c1` (centres unmarked) [MMV007471]: the “Giardia (16 uM) Mean % inhibition” value in experiment [1] worked out at 23%. The “Crypto (10 uM) Mean % inhibition” value in experiment [2] was determined as 50%.
For `Cc1cc(C)n(-c2ccc(NC(=O)C3CCN(Cc4cnc(C)s4)CC3)cc2)n1` [MMV007625], the “Giardia (16 uM) Mean % inhibition” value in experiment [1] amounted to 27%. For the same molecule, the “Crypto (10 uM) Mean % inhibition” value in experiment [2] is “X* (Mean or standard deviation are negative but not significantly different from the control to be a growth promoter)”.
In the case of `CCOc1ccc(-c2nc(NC(=O)CS(=O)(=O)c3ccccc3)sc2C)cc1` [MMV007638], the “Giardia (16 uM) Mean % inhibition” value in experiment [1] stood at 8%. Besides, in experiment [2], the “Crypto (10 uM) Mean % inhibition” value is recorded as “X* (Mean or standard deviation are negative but not significantly different from the control to be a growth promoter)”.
The like results for `O=C(NC1CC1)c1ccc(CSCc2ccccc2Cl)o1` [MMV007803] were, in that order, 6% and “X* (Mean or standard deviation are negative but not significantly different from the control to be a growth promoter)”.
With `Nc1ccc(C(=O)Nc2ccc(-c3nc4ccccc4o3)cc2)cc1` [MMV007920], in experiment [1], the “Giardia (16 uM) Mean % inhibition” value worked out at 60%. Moreover, the “Crypto (10 uM) Mean % inhibition” value in experiment [2] is recorded as 63%.
As for `COc1ccc(CN2CCOc3ccc(C(C)(O)CN(C)C)cc3C2)cc1C` (centres unmarked) [MMV008439], in experiment [1], the “Giardia (16 uM) Mean % inhibition” value was 35%. Moreover, in experiment [2], the “Crypto (10 uM) Mean % inhibition” value was found to be 68%.
With `Cc1cc(C(=O)Nc2cnn(Cc3ccc(Cl)cc3Cl)c2)no1` [MMV009054], the “Giardia (16 uM) Mean % inhibition” value in experiment [1] was “X* (Mean or standard deviation are negative but not significantly different from the control to be a growth promoter)”. For the same molecule, in experiment [2], the “Crypto (10 uM) Mean % inhibition” value is recorded as 59%.
Turning to `O=C(C1CCN(c2nnnn2-c2ccccc2)CC1)N1CCc2ccccc2C1` [MMV009135], in experiment [1], the “Giardia (16 uM) Mean % inhibition” value is “X* (Mean or standard deviation are negative but not significantly different from the control to be a growth promoter)”. Further, the “Crypto (10 uM) Mean % inhibition” value in experiment [2] worked out at 56%.
The like results for `COc1ccc(-c2cnc3ccc(NCc4ccc(S(N)(=O)=O)cc4)nn23)cn1` [MMV010545] were, in that order, “X* (Mean or standard deviation are negative but not significantly different from the control to be a growth promoter)” and “X* (Mean or standard deviation are negative but not significantly different from the control to be a growth promoter)”.
On the same counts, the results for `c1csc(-c2cnc3sc(NCC4CCOCC4)nn23)c1` [MMV010764] are “X* (Mean or standard deviation are negative but not significantly different from the control to be a growth promoter)” and “X* (Mean or standard deviation are negative but not significantly different from the control to be a growth promoter)”.
On the same counts, the results for `Cc1cc(Nc2ccc(C(F)(F)F)cc2)n2ccnc2n1` [MMV011229] are 35% and “X* (Mean or standard deviation are negative but not significantly different from the control to be a growth promoter)”.
As to `COc1ccc(CCN2CCC(NCc3cccc(N(C)C)c3)CC2)cc1` [MMV011511], the “Giardia (16 uM) Mean % inhibition” value in experiment [1] was found to be 73%. In experiment [2], the “Crypto (10 uM) Mean % inhibition” value is “X* (Mean or standard deviation are negative but not significantly different from the control to be a growth promoter)”.
Consider `NCC(=O)N1CCn2c(nc(-c3ccccc3)c2Nc2ccc3c(c2)OCO3)C1` [MMV011691], for which the “Giardia (16 uM) Mean % inhibition” value in experiment [1] was 20%. Also, the “Crypto (10 uM) Mean % inhibition” value in experiment [2] is “X* (Mean or standard deviation are negative but not significantly different from the control to be a growth promoter)”.
The like results for `FC(F)(F)c1cnc(Sc2nnc(-c3ccncc3)o2)c(Cl)c1` [MMV011765] were, in that order, 53% and 89%.
Consider `Cc1ccc(NC(=O)c2nc[nH]c2C(=O)Nc2nc3ccccc3[nH]2)c(C)c1` [MMV011903], for which, in experiment [1], the “Giardia (16 uM) Mean % inhibition” value stood at 21%. In experiment [2], the “Crypto (10 uM) Mean % inhibition” value was 62%.
On the same counts, the results for `Cc1nc2ccccn2c1C(=O)NCc1ccc(Cl)cc1` [MMV012074] are 14% and 57%.
